Target: T1, human TRPV4 (Homo sapiens, UniProt Q9HBA0)
T1 construct: host or cells: tetracycline-inducible Flp-In T-REx 293 cells
Assay: Hypotonicity-induced Ca2+ influx (Fluo-4, FDSS)
Type: cell-based
How it was run: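 Flp-In T-REx 293 cells with tetracycline-induced human TRPV4, loaded with Fluo-4 for 60 min at 25 °C. Compound added 5 min before hypotonic mannitol/CaCl2 solution. Ca2+ signal recorded for 4.5 min on FDSS.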

[1] = Flp-In T-REx 293 cells expressing human TRPV4, examples listed under heading 'Human IC50<50 nM'
[2] = Flp-In T-REx 293 cells stably expressing human TRPV4, compounds listed by potency bin (<10 nM Tables 96-1/96-2, <3 nM Table 97)

T1 sequence (Q9HBA0 whole entry): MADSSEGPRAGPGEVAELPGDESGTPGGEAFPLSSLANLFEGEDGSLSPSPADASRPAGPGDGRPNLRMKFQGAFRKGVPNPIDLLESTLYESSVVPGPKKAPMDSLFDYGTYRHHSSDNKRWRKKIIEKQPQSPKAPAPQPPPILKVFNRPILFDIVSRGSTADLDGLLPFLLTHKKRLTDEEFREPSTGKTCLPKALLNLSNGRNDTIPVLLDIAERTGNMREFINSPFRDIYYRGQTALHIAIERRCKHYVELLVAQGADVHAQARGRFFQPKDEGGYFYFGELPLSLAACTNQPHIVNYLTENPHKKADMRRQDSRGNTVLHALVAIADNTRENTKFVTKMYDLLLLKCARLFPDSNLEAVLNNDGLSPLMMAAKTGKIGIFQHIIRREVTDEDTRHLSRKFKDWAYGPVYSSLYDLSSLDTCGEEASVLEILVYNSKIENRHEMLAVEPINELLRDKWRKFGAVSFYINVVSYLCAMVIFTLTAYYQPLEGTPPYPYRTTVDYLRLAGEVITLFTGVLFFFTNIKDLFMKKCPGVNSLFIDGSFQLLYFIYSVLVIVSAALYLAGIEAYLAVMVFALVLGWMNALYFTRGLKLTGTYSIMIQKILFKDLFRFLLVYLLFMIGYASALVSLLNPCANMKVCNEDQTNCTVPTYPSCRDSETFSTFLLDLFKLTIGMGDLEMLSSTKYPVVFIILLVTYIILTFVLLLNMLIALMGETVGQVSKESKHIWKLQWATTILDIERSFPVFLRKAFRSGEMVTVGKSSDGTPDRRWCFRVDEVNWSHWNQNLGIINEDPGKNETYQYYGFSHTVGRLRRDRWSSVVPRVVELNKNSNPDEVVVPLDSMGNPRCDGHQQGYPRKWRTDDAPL

SMILES	IC50 [1] [nM]	IC50 [2] [nM]
O=C(Cc1ccc(COc2ccccc2)cc1)N1CCN(c2ccc(-c3cccc(C4(c5nc6c(c(=O)[nH]5)CN(C(=O)[C@H](O)c5cccc(C(F)(F)F)c5)CCC6)CC4)c3)cn2)CC1 [42-90]	< 50	< 10
CC(C)Cc1cccc(C2(c3nc4c(c(=O)[nH]3)CN(C(=O)[C@H](O)c3cccc(C(F)(F)F)c3)CCC4)CC2)c1 [31-6]	< 50	< 3
O=C(Cc1cccc(-c2cccc(Cl)c2)c1)N1CCCc2nc(C3(c4cccc(C5CCCCC5)c4)CC3)[nH]c(=O)c2C1 [31-16]	< 50	< 10
O=C(Cc1cccc(S(F)(F)(F)(F)F)c1)N1CCCc2nc(C3(c4cccc(Cl)c4)CC3)[nH]c(=O)c2C1 [17-114]	< 50	< 10
O=C(C(O)c1cccc(-c2cccc(F)c2)c1)N1CCCc2nc(C3(c4cccc(F)c4)CC3)[nH]c(=O)c2C1 (centres unmarked) [17-48]	< 50	–
O=C(C(O)c1cccc(S(F)(F)(F)(F)F)c1)N1CCc2nc(C3(c4ccccc4)CC3)[nH]c(=O)c2C1 (centres unmarked) [14-31]	< 50	–
O=C([C@H](O)c1cccc(Cl)c1)N1CCc2nc(C3(c4cc(Br)cs4)CC3)[nH]c(=O)c2C1 [6-18]	< 50	–
CC(C)c1csc(C2(c3nc4c(c(=O)[nH]3)CN(C(=O)Cc3cccc(-c5cccc(Cl)c5)c3)CCC4)CC2)c1 [18-30]	< 50	< 10
O=C(C(O)c1cccc(-c2cccc(C(F)(F)F)c2)c1)N1CCc2nc(C3(c4cccs4)CC3)[nH]c(=O)c2C1 (centres unmarked) [15-6]	< 50	< 10
O=C([C@H](O)c1cccc(C(F)(F)F)c1)N1CCc2nc(C3(c4cncc(C5CCC(F)(F)CC5)c4)CC3)[nH]c(=O)c2C1 [28-4]	< 50	< 10
O=C(C(O)c1cccc(S(F)(F)(F)(F)F)c1)N1CCCc2nc(C3(c4cccc(F)c4)CC3)[nH]c(=O)c2C1 (centres unmarked) [17-32]	< 50	< 10
O=C([C@H](O)c1cccc(C(F)(F)F)c1)N1CCc2nc(C3(c4cccs4)CC3)[nH]c(=O)c2C1 [15-18]	< 50	–
COc1cc(-c2cccc(C3(c4nc5c(c(=O)[nH]4)CN(C(=O)[C@H](O)c4cccc(Cl)c4)CCC5)CC3)c2)ccn1 [40-14]	< 50	< 3
O=C([C@H](O)c1cccc(Cl)c1)N1CCc2nc(C3(c4cc(F)cc(F)c4)CC3)[nH]c(=O)c2C1 [3-58]	< 50	–
O=C([C@H](O)c1cccc(C(F)(F)F)c1)N1CCc2nc(C3(c4cc(-c5cccnc5)cs4)CC3)[nH]c(=O)c2C1 [36-2]	< 50	–
O=C(Cc1cccc(-c2ccc(OC(F)(F)F)cc2)c1)N1CCCc2nc(C3(c4ccccc4)CC3)[nH]c(=O)c2C1 [17-134]	< 50	< 10
O=C(Cc1cccc(-c2cccc(C(F)(F)F)c2)c1)N1CCCc2nc(C3(c4cccc(Cl)c4)CC3)[nH]c(=O)c2C1 [17-99]	< 50	< 10
Cn1ncc2cc(-c3cccc(C4(c5nc6c(c(=O)[nH]5)CN(C(=O)[C@H](O)c5cccc(C(F)(F)F)c5)CCC6)CC4)c3)ccc21 [42-20]	< 50	< 10
O=C([C@H](O)c1cccc(C(F)(F)F)c1)N1CCCc2nc(C3(c4cccc(-c5cncc(C(F)(F)F)c5)c4)CC3)[nH]c(=O)c2C1 [42-45]	< 50	< 10
O=C([C@H](O)c1cccc(C(F)(F)F)c1)N1CCCc2nc(C3(c4cccc(-c5ccc(F)c(F)c5)c4)CC3)[nH]c(=O)c2C1 [42-62]	< 50	< 10
O=C([C@H](O)c1cccc(C(F)(F)F)c1)N1CCCc2nc(C3(c4ccccc4)CC3)[nH]c(=O)c2C1 [17-37]	< 50	< 10
O=C([C@H](O)c1cccc(C(F)(F)F)c1)N1CCCc2nc(C3(c4cccc(C5CCCCC5)c4)CC3)[nH]c(=O)c2C1 [17-25]	< 50	< 10
O=C([C@H](O)c1cccc(F)c1F)N1CCCc2nc(C3(c4ccccc4)CC3)[nH]c(=O)c2C1 [10-6]	< 50	–
O=C(C(O)c1cccc(-c2cccc(C(F)(F)F)c2)c1)N1CCCc2nc(C3(c4cccc(Cl)c4)CC3)[nH]c(=O)c2C1 (centres unmarked) [17-16]	< 50	< 10
CS(=O)(=O)c1cccc(-c2cccc(C3(c4nc5c(c(=O)[nH]4)CN(C(=O)[C@H](O)c4cccc(C(F)(F)F)c4)CCC5)CC3)c2)c1 [42-15]	< 50	< 3
O=C([C@H](O)c1cccc(C(F)(F)F)c1)N1CCCc2nc(C3(c4cccc(-c5ccccc5F)c4)CC3)[nH]c(=O)c2C1 [42-56]	< 50	< 10
CCc1csc(C2(c3nc4c(c(=O)[nH]3)CN(C(=O)[C@H](O)c3cccc(C(F)(F)F)c3)CC4)CC2)c1 [15-5]	< 50	< 10
CN(Cc1ccc(-c2cccc(C3(c4nc5c(c(=O)[nH]4)CN(C(=O)[C@H](O)c4cccc(C(F)(F)F)c4)CCC5)CC3)c2)cc1)C(=O)N1CCCCC1 [42-91]	< 50	< 10

The remaining lines, values ahead:

IC50 [1] [nM]	IC50 [2] [nM]	SMILES
< 50	< 3	O=C([C@H](O)c1cccc(-c2cccc(C(F)(F)F)n2)c1)N1CCc2nc(C3(c4cccc(Cl)c4)CC3)[nH]c(=O)c2C1 [45-6]
< 50	< 10	O=C([C@H](O)c1cccc(-c2cccc(OC(F)(F)F)c2)c1)N1CCCc2c(nc(C3(c4ccccc4)CC3)[nH]c2=O)C1 [49-56]
< 50	–	O=C(C(O)c1cccc(-c2cccc(F)c2F)c1)N1CCc2nc(C3(c4ccccc4)CC3)[nH]c(=O)c2C1 (centres unmarked) [44-44]
< 50	–	O=C(C(O)c1cccc(-c2ccc(Cl)cc2)c1)N1CCc2nc(C3(c4ccccc4)CC3)[nH]c(=O)c2C1 (centres unmarked) [44-36]
< 50	< 10	O=C(C(O)c1cccc(-c2ccnc(C(F)(F)F)c2)c1)N1CCCc2nc(C3(c4ccccc4)CC3)[nH]c(=O)c2C1 (centres unmarked) [49-5]
< 50	–	O=C([C@H](O)c1cccc(-c2ccc(OCc3ccccn3)cc2)c1)N1CCc2nc(C3(c4ccccc4)CC3)[nH]c(=O)c2C1 [44-87]
< 50	< 3	O=C([C@H](O)c1cccc(-c2cccc(Cl)c2)c1)N1CCCc2nc(C3(c4cccc(C5CCCCC5)c4)CC3)[nH]c(=O)c2C1 [52-3]
< 50	–	O=C(C(O)c1cccc(-c2csc(Cl)c2)c1)N1CCc2nc(C3(c4ccccc4)CC3)[nH]c(=O)c2C1 (centres unmarked) [44-27]
< 50	–	O=C(C(O)c1cccc(-c2cccc(Cl)c2)n1)N1CCc2nc(C3(c4ccccc4)CC3)[nH]c(=O)c2C1 (centres unmarked) [48-8]
< 50	< 10	CC(C)(C)c1cccc(-c2cccc([C@@H](O)C(=O)N3CCCc4nc(C5(c6cncc(-c7ccccc7)c6)CC5)[nH]c(=O)c4C3)c2)c1 [56-4]
< 50	< 3	O=C(C(O)c1cccc(-c2cccc(OC(F)(F)F)c2)c1)N1CCCc2nc(C3(c4cncc(-c5ccccc5)c4)CC3)[nH]c(=O)c2C1 (centres unmarked) [56-1]
< 50	–	O=C([C@H](O)c1cccc(-c2ccc3c(c2)CCO3)c1)N1CCc2nc(C3(c4ccccc4)CC3)[nH]c(=O)c2C1 [44-116]
< 50	< 10	O=C(C(O)c1cccc(-c2cccc(F)c2)c1)N1CCCc2nc(C3(c4ccccc4)CC3)[nH]c(=O)c2C1 (centres unmarked) [49-9]
< 50	< 10	O=C([C@H](O)c1cccc(-c2cccc(C(F)(F)F)c2)c1)N1CCCc2nc(C3(c4cccc(Oc5ccccc5)c4)CC3)[nH]c(=O)c2C1 [52-8]

— patent publication US12673946B2, “Pyrimidin-4(3H)-one derivatives as TRPV4 antagonists” (RaQualia Pharma Inc., priority 2020, dated 2026)
